Data on 17 molecules can be found in paper PMC6153936, “Bisarylureas Based on 1H-Pyrazolo[3,4-d]pyrimidine Scaffold as Novel Pan-RAF Inhibitors with Potent Anti-Proliferative Activities: Structure-Based Design, Synthesis, Biological Evaluation and Molecular Modelling Studies” (Molecules : A Journal of Synthetic Chemistry and Natural …, 2017).

As usually defined, the IC50 is the midpoint of a concentration-inhibition curve. As a reminder, the melting point is the temperature of the solid-liquid transition. As usually defined, the inhibition is the share of the control response that was lost under treatment. A higher inhibition goes with strong suppression.

In data set [1] the test system is HT-29. As to the kind of experiment: MTT anti-proliferative assay, HT-29. Type of data set: cell-based. Particulars: Homo sapiens, 48 h.
Method: (§1) All cell lines were purchased from Cell Bank of China Science Academy (Shanghai, China). All chemicals and solvents were purchased from Sigma-Aldrich (St. Louis, MO, USA) or Gibco (Gibco BRL, Grand Island, NY, USA). The PC-3 and A375 cell lines was maintained in Dulbecco's modified eagle (DEME) medium supplement with 10% fetal bovine serum (FBS) and 1% penicillin–streptomycin. The others were cultured in Roswell Park Memorial Institute (RPMI) 1640 medium supplement with 10% fetal bovine serum (FBS) and 1% penicillin–streptomycin. Approximately 5 × 10^3 cells, suspended in medium, were plated into each well of a 96-well plate and grown at 37 °C in a humidified atmosphere with 5% CO2 for 24 h. The following day, various concentrations of tested compounds were added to the culture medium and incubated for 48 h. Fresh MTT was added to each well at the terminal concentration of 5 mg/mL in phosphate buffered saline (PBS), and incubated with cells at 37 °C for 4 h. The formazan crystals in each well were dissolved in 150 μL DMSO, and the absorbency at 570 nm was measured with an enzyme-linked immunosorbent assay plate reader. All of the compounds were tested three times in each of the cell lines.
Data set [2] in a line: MTT cytotoxic assay, normal cell line MDCK. Particulars: dog, MDCK cells (normal cell line).
Method: as §1
Data set [3] has as its system A549. The data set can be described thus: MTT anti-proliferative assay, A549. The data set is classed as cell-based, human. The settings on record: for IC50: Homo sapiens, A549, MTT, 48 h. For orientation: Tetrazolium assays rely on reduction of a dye to a coloured formazan, in cell work by metabolically active cells.
Method: as §1
In data set [4] the target is T1, BRAF^V600E (Homo sapiens, UniProt P15056, V600E).
T1 construct: purchased Life Technologies
As to the kind of experiment: BRAF^V600E kinase inhibition, Z'-LYTE. The data set is classed as biochemical. Particulars: for inhibition at 1 µM: 1000 nM; for inhibition at 1 µM / inhibition at 0.1 µM: average of two independent experiments; for inhibition at 0.1 µM: 100 nM; for IC50: ten concentrations 1000 to 0.0508 nM, two independent experiments. How it is done:
The experiments were performed according to the instructions of the manufacturer, and single point concentration testing with two independent data points (n = 2). […] The IC50 values were calculated from the inhibition curves from two separate experiments.

The test system of data set [5] is PC-3. The data set can be described thus: MTT anti-proliferative assay, PC-3. Type of data set: cell-based, human. Particulars: for IC50: Homo sapiens, PC-3, MTT, 48 h; for fold improvement in activity compared to Sorafenib, PC-3: PC-3, IC50 ratio to Sorafenib.
Method: as §1
Data set [6] has as its system A375. The data set can be described thus: MTT anti-proliferative assay, A375. Particulars: Homo sapiens, A-375, 48 h. The data set is classed as cell-based.
Method: as §1

T1 sequence (P15056 whole entry V600E): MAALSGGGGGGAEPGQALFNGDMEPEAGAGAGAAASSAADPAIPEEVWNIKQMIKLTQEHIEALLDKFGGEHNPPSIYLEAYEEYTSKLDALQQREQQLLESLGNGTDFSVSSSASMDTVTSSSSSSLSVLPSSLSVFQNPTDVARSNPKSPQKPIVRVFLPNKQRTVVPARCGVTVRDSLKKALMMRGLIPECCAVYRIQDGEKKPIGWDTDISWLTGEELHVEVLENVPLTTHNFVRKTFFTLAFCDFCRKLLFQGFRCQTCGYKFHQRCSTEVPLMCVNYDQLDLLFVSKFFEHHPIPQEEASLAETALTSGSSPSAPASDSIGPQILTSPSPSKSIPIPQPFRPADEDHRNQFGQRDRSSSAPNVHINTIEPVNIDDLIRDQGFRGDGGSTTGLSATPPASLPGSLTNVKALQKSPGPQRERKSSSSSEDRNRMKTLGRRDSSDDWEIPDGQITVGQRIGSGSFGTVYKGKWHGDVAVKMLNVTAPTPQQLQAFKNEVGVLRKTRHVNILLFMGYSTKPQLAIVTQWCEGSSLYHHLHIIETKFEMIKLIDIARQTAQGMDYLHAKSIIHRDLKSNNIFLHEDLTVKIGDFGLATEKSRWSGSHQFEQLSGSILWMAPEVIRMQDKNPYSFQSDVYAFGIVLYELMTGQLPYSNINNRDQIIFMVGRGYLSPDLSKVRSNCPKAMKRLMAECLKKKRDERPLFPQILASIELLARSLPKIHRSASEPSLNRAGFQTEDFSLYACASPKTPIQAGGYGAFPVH

As for `Cc1ccc(Cl)c(NC(=O)Nc2ccc(Oc3ncnc4[nH]ncc34)cc2)c1` [Compound 1f, 1-(4-((1H-Pyrazolo[3,4-d]pyrimidin-4-yl)oxy)phenyl)-3-(2-chloro-5-methylphenyl)urea], the melting point was 230.2 to 232.4 °C. Moreover, in data set [1], the IC50 was 61.7 µM. Also, the IC50 at 48 h in data set [2] is over 80 µM. The “fold improvement compared to Sorafenib, A549” value in data set [3] (A549, IC50 ratio to Sorafenib) is listed as 2 fold. Besides, half-maximal inhibition in data set [3] (IC50) required 5.24 µM. Further, at 1 µM the inhibition in data set [4] was 37%. Besides, in data set [5], the IC50 is 1.12 µM and the “fold improvement in activity compared to Sorafenib, PC-3” value was determined as 12 fold. This molecule gave an IC50 in data set [6] of 62.3 µM.
Take `O=C(Nc1ccc(Oc2ncnc3[nH]ncc23)cc1)Nc1cccc(Br)c1` [Compound 1s, 1-(4-((1H-Pyrazolo[3,4-d]pyrimidin-4-yl)oxy)phenyl)-3-(3-bromophenyl)urea]: the melting point was in the range of 234.5 to 237 °C. In data set [1], this molecule registered an IC50 of over 80 µM. The molecule also yielded an IC50 at 48 h in data set [2] of over 80 µM. Moreover, the IC50 in data set [3] is over 80 µM. In data set [4], the inhibition at 0.1 µM worked out at 10% and the inhibition at 1 µM was 71%. Also, the IC50 in data set [5] was 5.52 µM. The IC50 in data set [6] was 65.4 µM.
Consider `O=C(Nc1ccc(Oc2ncnc3[nH]ncc23)cc1)Nc1cc(F)cc(C(F)(F)F)c1` [Compound 1j, 1-(4-((1H-Pyrazolo[3,4-d]pyrimidin-4-yl)oxy)phenyl)-3-(3-fluoro-5-(trifluoromethyl)phenyl)urea], for which the melting point is 249.2 to 250.6 °C. The molecule further showed an IC50 in data set [1] of 50.7 µM. Besides, the IC50 at 48 h in data set [2] was over 80 µM. Further, the IC50 in data set [3] was 60.3 µM. In addition, in data set [4], the inhibition at 0.1 µM was 37% and the inhibition at 1 µM was determined as 67%. The molecule further gave an IC50 in data set [5] of 46 µM. The IC50 in data set [6] was found to be 30.4 µM.
`O=C(Nc1ccc(Oc2ncnc3[nH]ncc23)cc1)Nc1cccc(Cl)c1` [Compound 1g, 1-(4-((1H-Pyrazolo[3,4-d]pyrimidin-4-yl)oxy)phenyl)-3-(3-chlorophenyl)urea] had a melting point of 234.8 to 236 °C. In addition, the IC50 in data set [1] is over 80 µM. Besides, the IC50 at 48 h in data set [2] was over 80 µM. The molecule further returned an IC50 in data set [3] of 70.1 µM. The molecule also yielded an inhibition at 1 µM in data set [4] of 54%. Besides, the IC50 in data set [5] is over 80 µM. For the same molecule, the IC50 in data set [6] is over 80 µM.
On to `COC(=O)c1cccc(NC(=O)Nc2ccc(Oc3ncnc4[nH]ncc34)cc2)c1` [Compound 1q, Methyl-3-(3-(4-((1H-pyrazolo[3,4-d]pyrimidin-4-yl)oxy)phenyl)ureido)benzoate], for which the melting point lay within 217.3 to 220.1 °C. The molecule further gave an IC50 in data set [1] of over 80 µM. The molecule further gave a 50% inhibitory concentration (IC50) at 48 h in data set [2] of over 80 µM. The same molecule had a 50% inhibitory concentration (IC50) in data set [3] of over 80 µM. The molecule further had an inhibition at 1 µM in data set [4] of 32%. This molecule showed an IC50 in data set [5] of 22.5 µM. Moreover, in data set [6], the IC50 was over 80 µM.
As to `Cc1cccc(NC(=O)Nc2ccc(Oc3ncnc4[nH]ncc34)cc2)c1` [Compound 1b, 1-(4-((1H-Pyrazolo[3,4-d]pyrimidin-4-yl)oxy)phenyl)-3-(m-tolyl)urea], the melting point was in the range of 227.4 to 230 °C. The same molecule displayed a concentration for half-maximal inhibition (IC50) in data set [1] of over 80 µM. This molecule also yielded a 50% inhibitory concentration (IC50) at 48 h in data set [2] of over 80 µM. For the same molecule, in data set [3], the midpoint of inhibition, the IC50, lay at 75.6 µM. Besides, testing at 1 µM in data set [4] gave an inhibition of 46%. In data set [5], the IC50 is over 80 µM. In data set [6], the IC50 was over 80 µM.
As to `Cc1ccc(NC(=O)Nc2ccc(Oc3ncnc4[nH]ncc34)cc2)cc1C` [Compound 1t, 1-(4-((1H-Pyrazolo[3,4-d]pyrimidin-4-yl)oxy)phenyl)-3-(3,4-dimethylphenyl)urea], the melting point is 249.9 to 250.6 °C. The same molecule gave an IC50 in data set [1] of over 80 µM. The half-inhibitory concentration (IC50) at 48 h in data set [2] was over 80 µM. Besides, the IC50 in data set [3] is over 80 µM. In data set [4], this molecule showed an inhibition at 0.1 µM of 28% and an inhibition at 1 µM of 89%. In data set [5], this molecule had an IC50 of over 80 µM. The IC50 in data set [6] came to 75.2 µM.
In the case of `O=C(Nc1ccc(Cl)cc1)Nc1ccc(Oc2ncnc3[nH]ncc23)cc1` [Compound 1d, 1-(4-((1H-Pyrazolo[3,4-d]pyrimidin-4-yl)oxy)phenyl)-3-(4-chlorophenyl)urea], the IC50 was over 80 µM in data set [1], over 80 µM in data set [3], 18.4 µM in data set [5] and 78.8 µM in data set [6]. This molecule also came in with an IC50 at 48 h in data set [2] of over 80 µM. In addition, the inhibition at 1 µM in data set [4] amounted to 51%.
Regarding `Cn1ncc2c(Oc3ccc(NC(=O)Nc4cccc(Cl)c4)cc3)ncnc21` [Compound 1u, 1-(3-Chlorophenyl)-3-(4-((1-methyl-1H-pyrazolo[3,4-d]pyrimidin-4-yl)oxy)phenyl)urea], the melting point lay in the range of 309.8 to 312 °C. In data set [1], this molecule showed an IC50 of over 80 µM. The molecule further returned an IC50 at 48 h in data set [2] of over 80 µM. Moreover, in data set [3], the half-maximal inhibitory concentration (IC50) is over 80 µM. In data set [4], this molecule yielded an inhibition at 0.1 µM of 61%, an inhibition at 1 µM of 93% and an IC50 of 0.0381 µM. The IC50 in data set [5] came out at 68.9 µM. In data set [6], this molecule showed an IC50 of 13.2 µM.
Molecule `O=C(Nc1ccc(Oc2ncnc3[nH]ncc23)cc1)Nc1cc(C(F)(F)F)ccc1Cl` [Compound 1i, 1-(4-((1H-Pyrazolo[3,4-d]pyrimidin-4-yl)oxy)phenyl)-3-(2-chloro-5-(trifluoromethyl)phenyl)urea] gave a melting point of 239.2 to 240.3 °C. In data set [1], this molecule came in with an IC50 of 62.4 µM. In data set [2], this molecule yielded an IC50 at 48 h of over 80 µM. Further, in data set [3], the IC50 stood at 60.8 µM. In data set [4], this molecule came in with an inhibition at 0.1 µM of 52% and an inhibition at 1 µM of 83%. For the same molecule, in data set [5], the IC50 turned out to be 1.12 µM and the “fold improvement in activity compared to Sorafenib, PC-3” value came out at 12 fold. In data set [6], the IC50 is 26.9 µM.
With `Cc1ccc([N+](=O)[O-])c(NC(=O)Nc2ccc(Oc3ncnc4[nH]ncc34)cc2)c1` [Compound 1r, 1-(4-((1H-Pyrazolo[3,4-d]pyrimidin-4-yl)oxy)phenyl)-3-(5-methyl-2-nitrophenyl)urea], the melting point lay in the range of 359.7 to 360.2 °C. In data set [1], this molecule yielded an IC50 of over 80 µM. This molecule gave an IC50 at 48 h in data set [2] of over 80 µM. Also, in data set [3], the IC50 is over 80 µM. In data set [4], this molecule came in with an inhibition at 1 µM of 22%. In data set [5], the IC50 is over 80 µM. This molecule also returned an IC50 in data set [6] of over 80 µM.
For `O=C(Nc1ccc(Oc2ncnc3[nH]ncc23)cc1)Nc1cc(C(F)(F)F)ccc1F` [Compound 1n, 1-(4-((1H-Pyrazolo[3,4-d]pyrimidin-4-yl)oxy)phenyl)-3-(2-fluoro-5-(trifluoromethyl)phenyl)urea], the IC50 in data set [1] amounted to 27.8 µM; in data set [3], 32.1 µM; in data set [5] it was 40.3 µM; in data set [6], 5.39 µM. Half-maximal inhibition in data set [2] (IC50 at 48 h) was put at 23.1 µM. In addition, the inhibition at 0.1 µM in data set [4] worked out at 30%. In data set [4], the inhibition at 1 µM was 87%.
`CCc1cccc(NC(=O)Nc2ccc(Oc3ncnc4[nH]ncc34)cc2)c1` [Compound 1l, 1-(4-((1H-Pyrazolo[3,4-d]pyrimidin-4-yl)oxy)phenyl)-3-(3-ethylphenyl)urea] displayed a melting point of 219.5 to 221.5 °C. The molecule also yielded an IC50 in data set [1] of 71.2 µM. The molecule also registered an IC50 at 48 h in data set [2] of over 80 µM. In data set [3], this molecule came in with an IC50 of 19.9 µM. In data set [4], this molecule returned an inhibition at 0.1 µM of 60%, an inhibition at 1 µM of 69% and an IC50 of 0.0513 µM. This molecule yielded a half-maximal inhibitory concentration (IC50) in data set [5] of over 80 µM. Moreover, the IC50 in data set [6] came out at 75.6 µM.
`N#Cc1cccc(NC(=O)Nc2ccc(Oc3ncnc4[nH]ncc34)cc2)c1` [Compound 1p, 1-(4-((1H-Pyrazolo[3,4-d]pyrimidin-4-yl)oxy)phenyl)-3-(3-cyanophenyl)urea]: the melting point lay in the range of 235.2 to 237.4 °C. This molecule returned an IC50 in data set [1] of 39.4 µM. In data set [2], this molecule showed an IC50 at 48 h of over 80 µM. 59.5 µM corresponded to half-maximal inhibition in data set [3] (IC50). In data set [4], this molecule came in with an inhibition at 1 µM of 48%. Also, the IC50 in data set [5] turned out to be 30.9 µM. Further, the IC50 in data set [6] came to 61.8 µM.
On to `CNC(=O)c1cc(Oc2ccc(NC(=O)Nc3ccc(Cl)c(C(F)(F)F)c3)cc2)ccn1` [Sorafenib, reference compound], for which the IC50 in data set [1] was found to be 8.12 µM; in data set [3], 13.7 µM; in data set [5] it was 13.8 µM; in data set [6], 6.81 µM. The same molecule returned an IC50 at 48 h in data set [2] of 14.7 µM.
`O=C(Nc1ccc(Oc2ncnc3[nH]ncc23)cc1)Nc1ccc(Cl)c(Cl)c1` [Compound 1c, 1-(4-((1H-Pyrazolo[3,4-d]pyrimidin-4-yl)oxy)phenyl)-3-(3,4-dichlorophenyl)urea] gave a melting point of 245 to 247.2 °C. Besides, half-maximal inhibition in data set [1] (IC50) was put at 15.2 µM. The molecule also registered an IC50 at 48 h in data set [2] of 35.5 µM. Also, half-maximal inhibition in data set [3] (IC50) required 16.2 µM. In data set [4], this molecule came in with an inhibition at 0.1 µM of 27% and an inhibition at 1 µM of 83%. In data set [5], the IC50 is 11.2 µM. The molecule further had an IC50 in data set [6] of 29.7 µM.
For the molecule `CSc1cccc(NC(=O)Nc2ccc(Oc3ncnc4[nH]ncc34)cc2)c1` [Compound 1o, 1-(4-((1H-Pyrazolo[3,4-d]pyrimidin-4-yl)oxy)phenyl)-3-(3-(methylthio)phenyl)urea], the melting point is 227.3 to 228.4 °C. The IC50 in data set [1] was over 80 µM. Further, in data set [2], the IC50 at 48 h is over 80 µM. The IC50 in data set [3] came out at 30 µM. In data set [4], this molecule displayed an inhibition at 0.1 µM of 29% and an inhibition at 1 µM of 69%. This molecule also returned an IC50 in data set [5] of 5.34 µM. In data set [6], the IC50 was over 80 µM.
